TGI data for 12 molecules are collected here from PubChem BioAssay (NCI).

The structures appear in SMILES notation.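 Assay format: 96-well plates, 48-hour exposure. The concentration for full growth arrest is given as TGI.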

Some test systems named below: NCI-H226 lung; OVCAR-8 ovarian; SW-620 colon; DU-145 prostate; KM12 colon; T-47D breast; MALME-3M melanoma; SK-MEL-28 melanoma; OVCAR-5 ovarian; CAKI-1 renal; HS 578T breast; MCF7 breast; M14 melanoma; CCRF-CEM leukemia; BT-549 breast; ACHN renal; MOLT-4 leukemia; RXF 393 renal; HCC-2998 colon.
Assay in all cases: DTP human tumour cell line panel, 48 h

On to `O=C(O)CN1CCN2CCCCCN(CC1)CCN(CC(=O)O)CC2`, for which the TGI with NCI-H226 lung, in the assay with OVCAR-8 ovarian, with SW-620 colon, in the assay on DU-145 prostate, with KM12 colon and with T-47D breast was greater than 100 µM in each case. In addition, the TGI with MALME-3M melanoma, with SK-MEL-28 melanoma, in the assay with OVCAR-5 ovarian, in the assay with CAKI-1 renal, in the assay on HS 578T breast and in the assay on MCF7 breast was greater than 100 µM each time. The TGI in the assay with M14 melanoma, in the assay on CCRF-CEM leukemia, in the assay with BT-549 breast and in the assay on ACHN renal was greater than 100 µM in each case.

In the case of `CC(NC(=O)Cc1ccccc1)NC(=O)C(C)C(=O)Nc1ccccc1` (configuration not stated), the TGI was 74.3 µM with NCI-H226 lung; greater than 100 µM with OVCAR-8 ovarian; greater than 100 µM with SW-620 colon; greater than 100 µM with DU-145 prostate; greater than 100 µM in the assay with KM12 colon; greater than 100 µM with T-47D breast. Moreover, the TGI is greater than 100 µM in the assay on MOLT-4 leukemia; greater than 100 µM in the assay on RXF 393 renal; greater than 100 µM in the assay with MALME-3M melanoma; greater than 100 µM in the assay with OVCAR-5 ovarian; greater than 100 µM in the assay on CAKI-1 renal; 88 µM in the assay on HS 578T breast. Moreover, the TGI with MCF7 breast, in the assay with M14 melanoma, with BT-549 breast and with ACHN renal was greater than 100 µM throughout.

As for `O=C(O)CN1CCNCCN(CC(=O)O)CCN(CC(=O)O)CCNCC1`, the TGI in the assay with NCI-H226 lung, in the assay on OVCAR-8 ovarian, in the assay on SW-620 colon, in the assay with DU-145 prostate, in the assay with KM12 colon and in the assay on T-47D breast was greater than 100 µM in each case. In addition, the TGI in the assay with MOLT-4 leukemia, with MALME-3M melanoma, with SK-MEL-28 melanoma, with OVCAR-5 ovarian, in the assay with CAKI-1 renal and in the assay on HS 578T breast was greater than 100 µM throughout. The TGI in the assay on MCF7 breast, in the assay with M14 melanoma, with CCRF-CEM leukemia, with BT-549 breast and in the assay with ACHN renal was greater than 100 µM each time.

On to `CC1=CCC([C@@](C)(O)CCCC(C)(C)N=C=S)CC1` (some centres not stated), for which the TGI in the assay on NCI-H226 lung came to 32.1 µM; with HCC-2998 colon, 32.4 µM; in the assay on OVCAR-8 ovarian it was 32.7 µM; in the assay with SW-620 colon it was 32.6 µM; with DU-145 prostate, 30.7 µM; in the assay with KM12 colon it was 29.5 µM. Further, the TGI with T-47D breast came out at 44.2 µM; with MOLT-4 leukemia it was 50.5 µM; in the assay on RXF 393 renal, 29.6 µM; with MALME-3M melanoma it was 28.3 µM; in the assay on SK-MEL-28 melanoma, 30.2 µM; in the assay on OVCAR-5 ovarian, 34.9 µM. Further, the TGI in the assay with HS 578T breast was found to be 55.4 µM; in the assay with MCF7 breast, 34.6 µM; in the assay on M14 melanoma, 30.8 µM; in the assay on CCRF-CEM leukemia, 48.9 µM; in the assay with BT-549 breast it was 33.5 µM; with ACHN renal, 30.5 µM.

For the molecule `COc1cc(OC)cc(C(=O)CC(=O)c2cc(OC)cc(OC)c2)c1`, the TGI in the assay on NCI-H226 lung, in the assay with HCC-2998 colon, with OVCAR-8 ovarian, with SW-620 colon, in the assay with DU-145 prostate and in the assay on KM12 colon was greater than 100 µM throughout. For the same molecule, the TGI in the assay with T-47D breast, with MOLT-4 leukemia, in the assay on RXF 393 renal, in the assay on MALME-3M melanoma, in the assay with SK-MEL-28 melanoma and with OVCAR-5 ovarian was greater than 100 µM throughout. Besides, the TGI in the assay with HS 578T breast, in the assay with MCF7 breast, with M14 melanoma, in the assay on CCRF-CEM leukemia, in the assay on BT-549 breast and with ACHN renal was greater than 100 µM in each case.

Turning to `CCCCCC#CCOC(=O)C(=[N+]=[N-])P(=O)(c1ccccc1)c1ccccc1`, the TGI in the assay with NCI-H226 lung, in the assay with HCC-2998 colon, in the assay on OVCAR-8 ovarian, with SW-620 colon, in the assay with DU-145 prostate and in the assay on KM12 colon was greater than 10 µM each time. The TGI with T-47D breast, with MOLT-4 leukemia, in the assay on RXF 393 renal, with MALME-3M melanoma, in the assay with SK-MEL-28 melanoma and in the assay on OVCAR-5 ovarian was greater than 10 µM each time. In addition, the TGI with HS 578T breast, in the assay with MCF7 breast, in the assay on M14 melanoma, in the assay on BT-549 breast and with ACHN renal was greater than 10 µM each time.

Take `O=C(CCn1ccnc1[N+](=O)[O-])NCCCn1ccnc1[N+](=O)[O-]`: the TGI in the assay on NCI-H226 lung, in the assay on OVCAR-8 ovarian, in the assay with SW-620 colon, in the assay on DU-145 prostate, in the assay with KM12 colon and in the assay on T-47D breast was greater than 100 µM each time. In addition, the TGI in the assay on MOLT-4 leukemia, with RXF 393 renal, in the assay on MALME-3M melanoma, in the assay on SK-MEL-28 melanoma, in the assay on OVCAR-5 ovarian and with CAKI-1 renal was greater than 100 µM in each case. Further, the TGI in the assay on HS 578T breast, in the assay on MCF7 breast, in the assay with M14 melanoma, in the assay with CCRF-CEM leukemia, in the assay with BT-549 breast and with ACHN renal was greater than 100 µM throughout.

Regarding `O=C(O)[C@H]1CCCN1CP(=O)(O)CN1CCC[C@@H]1C(=O)O`, the TGI in the assay with OVCAR-8 ovarian, in the assay on SW-620 colon, in the assay on DU-145 prostate, with KM12 colon, in the assay with T-47D breast and with MOLT-4 leukemia was greater than 100 µM each time. Also, the TGI in the assay with RXF 393 renal, in the assay with MALME-3M melanoma, with SK-MEL-28 melanoma, in the assay with OVCAR-5 ovarian, in the assay on CAKI-1 renal and in the assay with HS 578T breast was greater than 100 µM throughout. Also, the concentration for total growth inhibition (TGI) in the assay on MCF7 breast, with M14 melanoma, in the assay on CCRF-CEM leukemia, in the assay with BT-549 breast and with ACHN renal was greater than 100 µM in each case.

Take `Cc1nn(-c2ccccc2)c2c1C(c1cc3ccccc3nc1Cl)NC(=O)N2` (configuration not stated): the TGI with NCI-H226 lung was 60.1 µM; in the assay with OVCAR-8 ovarian it was 47.4 µM; in the assay with SW-620 colon, 36.7 µM; with DU-145 prostate it was greater than 100 µM; with KM12 colon, 53.1 µM; with T-47D breast, greater than 100 µM. The TGI with RXF 393 renal is 55.9 µM; in the assay with MALME-3M melanoma it was 51.8 µM; with OVCAR-5 ovarian it was 43.8 µM; with CAKI-1 renal, greater than 100 µM; with HS 578T breast it was 96.2 µM; in the assay on MCF7 breast it was 73.9 µM. Further, the TGI in the assay on M14 melanoma amounted to 42.4 µM; with CCRF-CEM leukemia, 71.6 µM; in the assay on BT-549 breast, 36.8 µM; in the assay with ACHN renal, 35.8 µM.

As to `CSc1cc(-c2cccs2)sc1-c1cc(SC)c(-c2sc(-c3sc(-c4cccs4)cc3SC)cc2SC)s1`, the TGI in the assay with HCC-2998 colon, in the assay on OVCAR-8 ovarian, in the assay with SW-620 colon, in the assay with DU-145 prostate, with KM12 colon and in the assay with T-47D breast was greater than 100 µM throughout. The TGI in the assay on MOLT-4 leukemia, with RXF 393 renal, in the assay on MALME-3M melanoma, in the assay with SK-MEL-28 melanoma, in the assay on OVCAR-5 ovarian and in the assay on CAKI-1 renal was greater than 100 µM each time. Besides, the TGI in the assay on HS 578T breast, in the assay with MCF7 breast, in the assay with M14 melanoma, with CCRF-CEM leukemia, with BT-549 breast and in the assay with ACHN renal was greater than 100 µM throughout.

As to `CCN1CN(c2ccccc2)C2(CCN(CC3COc4ccccc4O3)CC2)C1=O` (configuration not stated), the TGI in the assay with NCI-H226 lung is 94.1 µM; with OVCAR-8 ovarian, greater than 100 µM; with SW-620 colon, greater than 100 µM; in the assay on DU-145 prostate, greater than 100 µM; in the assay on KM12 colon it was 36.5 µM; with T-47D breast, 67.4 µM. In addition, the TGI in the assay with MOLT-4 leukemia is 57.6 µM; in the assay with RXF 393 renal, 40 µM; with MALME-3M melanoma, 36 µM; in the assay with SK-MEL-28 melanoma it was 87.3 µM; with OVCAR-5 ovarian, greater than 100 µM; with CAKI-1 renal it was greater than 100 µM. Further, the TGI in the assay on HS 578T breast was 60.2 µM; in the assay on MCF7 breast, 77.6 µM; in the assay with M14 melanoma, 4.99 µM; in the assay on CCRF-CEM leukemia it was 83.3 µM; in the assay on BT-549 breast, 34.7 µM; in the assay on ACHN renal, 71.2 µM.

As for `C=CCc1cc(-c2nc(=S)[nH][nH]2)ccc1N=NNc1ccc(C(=O)O)cc1`, the TGI in the assay with NCI-H226 lung is greater than 100 µM; with OVCAR-8 ovarian, greater than 100 µM; in the assay on SW-620 colon, greater than 100 µM; in the assay with DU-145 prostate it was greater than 100 µM; in the assay with KM12 colon, greater than 100 µM; in the assay on T-47D breast, 70.2 µM. Also, the TGI in the assay with MOLT-4 leukemia, with RXF 393 renal, in the assay with MALME-3M melanoma, in the assay with SK-MEL-28 melanoma, in the assay on OVCAR-5 ovarian and in the assay with CAKI-1 renal was greater than 100 µM each time. In addition, the TGI in the assay on HS 578T breast was greater than 100 µM; in the assay with MCF7 breast, greater than 100 µM; with M14 melanoma, greater than 100 µM; in the assay on CCRF-CEM leukemia, greater than 100 µM; in the assay with BT-549 breast, 73.8 µM; with ACHN renal it was greater than 100 µM.
